Measured values: US7371758B2, “Antimalarial pyrimidine derivatives and methods of making and using them” (National Science & Technology Development Agency, priority 2003, dated 2008)

How the values were obtained:
[1] = target: dihydrofolate reductase of Plasmodium falciparum, wild type (Plasmodium falciparum, UniProt A7UD81); experiment: PfDHFR enzyme inhibition constants (Ki), wild type; format: biochemical; details: 25° C., 340 nm
[2] = target: T1, PfDHFR S108N (Plasmodium falciparum, UniProt A7UD81, S108N); experiment: PfDHFR enzyme inhibition constants (Ki), single mutant S108N; format: biochemical
T1 construct: made in house; host or cells: E. coli BL21 (DE3)pLysS

[3] = target: T2, PfDHFR C59R + S108N (Plasmodium falciparum, UniProt A7UD81, C59R/S108N); experiment: PfDHFR enzyme inhibition constants (Ki), double mutant C59R + S108N; format: biochemical
T2 construct: made in house; host or cells: E. coli BL21 (DE3)pLysS

[4] = target: T3, PfDHFR N51I + C59R + S108N + I164L (Plasmodium falciparum, UniProt A7UD81, C59R/I164L/N51I/S108N); experiment: PfDHFR enzyme inhibition constants (Ki), quadruple mutant N51I + C59R + S108N + I164L; format: biochemical
T3 construct: made in house; host or cells: E. coli BL21 (DE3)pLysS

[5] = tested on: Plasmodium falciparum TM4/8.2 (wild type); experiment: In vitro antimalarial activity, [3H]-hypoxanthine incorporation, TM4/8.2; format: cell-based; details: P. falciparum TM4/8.2, wild type
Method: P. falciparum strains were used in this study. P. falciparum strains were maintained continuously in human erythrocytes at 37° C. under 3% CO2 in RPMI 1640 culture media supplemented with 25 mM HEPES, pH 7.4, 0.2% NaHCO3, 40 μg/mL gentamicin and 10% human serum.
In vitro antimalarial activity was determined by using [^3H]-hypoxanthine incorporation method. The drugs were initially dissolved in DMSO and diluted with the culture media. Aliquots (25 μL) of the drug of different concentrations were dispensed in 96-well plates and 200 μL of 1.5% cell suspension of parasitized erythrocytes containing 1-2% parasitemia were added. […] The mixtures were incubated in a 3% CO2 incubator at 37° C. After 24 h of incubation, 25 μL (0.25 μCi) of [^3H]-hypoxanthine were added to each well. The parasite cultures were further incubated under the same condition for 18-24 h. DNA of parasites was harvested onto glass filter paper. The filters were air-dried and 20 μL liquid scintillation fluid was added. The radioactivity on the filters was then measured using a microplate scintillation counter. […] Examples of the invented compounds in this series with active antimalarial activity against wild type and in particular against parasites carrying single, double, triple, and quadruple mutant enzymes are as summarized in Table 2.

[6] = Cytotoxicity to mammalian cells, Vero; format: cell-based; details: African green monkey, Vero cells (African green monkey kidney epithelial cells)
[7] = Cytotoxicity to mammalian cells, KB; format: cell-based; details: human, KB cells (human epidermoid carcinoma)
Method: (§1) Cytotoxicity tests of the invented compounds against African green monkey kidney fibroblast (Vero cells), Human epidermoid carcinoma (KB) cells, Human breast cancer (BC) cells were performed according to the protocol described by Skehan et al (1990). These compounds have selectivity against malaria parasites with no or less effect on mammalian cell lines.

[8] = Cytotoxicity to mammalian cells, BC; format: cell-based; details: human, BC cells (human breast cancer)
Method: as §1

[9] = tested on: Staphylococcus aureus; experiment: Antibacterial activity, bacterial growth inhibition, S. aureus; format: cell-based; details: 20 hours incubation, 600 nm
Method: (§2) The IC50-values was determined from the sigmoidal curve obtained by plotting the percentages of bacterial growth against drug concentrations. These compounds have selectivity against malaria parasites with no or less effect on bacteria. The antibacterial activities to S. aureus, and E. coli are as summerized in Table 4.

[10] = tested on: E. coli; experiment: Antibacterial activity, bacterial growth inhibition, E. coli; format: cell-based; details: Escherichia coli, 20 hours incubation, 600 nm
Method: as §2

[11] = target: PfDHFR N51I + C59R + S108N (Plasmodium falciparum, UniProt A7UD81, C59R/N51I/S108N); experiment: biochemical
[12] = target: PfDHFR C59R + S108N + I164L (Plasmodium falciparum, UniProt A7UD81, C59R/I164L/S108N); experiment: biochemical
Chain of PfDHFR C59R + S108N + I164L (A7UD81 whole entry C59R/S108N/I164L): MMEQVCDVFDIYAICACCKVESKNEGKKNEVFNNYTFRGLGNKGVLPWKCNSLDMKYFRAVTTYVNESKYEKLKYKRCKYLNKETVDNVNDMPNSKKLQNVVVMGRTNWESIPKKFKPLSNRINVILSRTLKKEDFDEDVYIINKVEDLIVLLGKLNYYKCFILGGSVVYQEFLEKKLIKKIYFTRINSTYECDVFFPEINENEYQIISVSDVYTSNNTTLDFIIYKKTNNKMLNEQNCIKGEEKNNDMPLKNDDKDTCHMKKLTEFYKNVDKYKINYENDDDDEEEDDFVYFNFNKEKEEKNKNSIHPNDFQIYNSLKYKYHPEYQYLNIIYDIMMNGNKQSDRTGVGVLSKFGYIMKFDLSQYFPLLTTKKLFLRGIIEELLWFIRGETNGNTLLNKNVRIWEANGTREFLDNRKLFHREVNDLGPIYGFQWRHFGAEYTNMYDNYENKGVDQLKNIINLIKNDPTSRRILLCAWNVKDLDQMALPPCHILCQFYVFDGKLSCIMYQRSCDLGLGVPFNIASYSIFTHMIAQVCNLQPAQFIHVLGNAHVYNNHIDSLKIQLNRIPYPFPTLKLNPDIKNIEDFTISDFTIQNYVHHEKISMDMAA

Chain of dihydrofolate reductase of Plasmodium falciparum, wild type (A7UD81 entry or part of it): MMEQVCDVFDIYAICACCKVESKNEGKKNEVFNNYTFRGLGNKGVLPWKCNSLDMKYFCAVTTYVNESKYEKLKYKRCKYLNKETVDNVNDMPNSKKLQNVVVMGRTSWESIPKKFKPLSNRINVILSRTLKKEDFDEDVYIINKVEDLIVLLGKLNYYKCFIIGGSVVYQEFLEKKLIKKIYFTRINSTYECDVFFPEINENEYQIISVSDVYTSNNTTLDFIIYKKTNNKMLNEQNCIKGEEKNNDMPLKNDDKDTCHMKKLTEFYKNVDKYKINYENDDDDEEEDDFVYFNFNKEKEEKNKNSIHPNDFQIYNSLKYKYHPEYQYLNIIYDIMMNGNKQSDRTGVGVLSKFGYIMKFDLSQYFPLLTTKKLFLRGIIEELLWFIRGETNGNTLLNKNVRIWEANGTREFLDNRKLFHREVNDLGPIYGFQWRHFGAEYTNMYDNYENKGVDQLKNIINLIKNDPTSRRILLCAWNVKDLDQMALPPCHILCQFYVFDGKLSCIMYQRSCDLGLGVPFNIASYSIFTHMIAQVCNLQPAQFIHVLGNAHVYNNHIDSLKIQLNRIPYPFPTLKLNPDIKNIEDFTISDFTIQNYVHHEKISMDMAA
T3 sequence (A7UD81 whole entry N51I/C59R/S108N/I164L): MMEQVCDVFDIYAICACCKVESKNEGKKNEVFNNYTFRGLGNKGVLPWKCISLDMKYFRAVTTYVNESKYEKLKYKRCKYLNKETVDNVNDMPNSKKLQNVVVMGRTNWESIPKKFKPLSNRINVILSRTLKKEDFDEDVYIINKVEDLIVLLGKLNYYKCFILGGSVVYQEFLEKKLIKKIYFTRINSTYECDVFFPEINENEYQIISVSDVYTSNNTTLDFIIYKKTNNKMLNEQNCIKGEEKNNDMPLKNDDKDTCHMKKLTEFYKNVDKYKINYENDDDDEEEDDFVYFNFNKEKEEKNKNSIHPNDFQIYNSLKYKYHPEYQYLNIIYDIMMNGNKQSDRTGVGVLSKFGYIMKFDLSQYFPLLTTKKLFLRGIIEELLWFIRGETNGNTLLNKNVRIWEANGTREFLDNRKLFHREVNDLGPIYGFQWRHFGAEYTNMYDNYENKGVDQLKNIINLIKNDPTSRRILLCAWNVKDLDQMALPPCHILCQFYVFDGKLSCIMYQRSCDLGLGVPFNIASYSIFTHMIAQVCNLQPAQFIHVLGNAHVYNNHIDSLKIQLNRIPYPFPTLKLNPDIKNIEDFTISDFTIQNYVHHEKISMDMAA
Chain of PfDHFR N51I + C59R + S108N (A7UD81 whole entry N51I/C59R/S108N): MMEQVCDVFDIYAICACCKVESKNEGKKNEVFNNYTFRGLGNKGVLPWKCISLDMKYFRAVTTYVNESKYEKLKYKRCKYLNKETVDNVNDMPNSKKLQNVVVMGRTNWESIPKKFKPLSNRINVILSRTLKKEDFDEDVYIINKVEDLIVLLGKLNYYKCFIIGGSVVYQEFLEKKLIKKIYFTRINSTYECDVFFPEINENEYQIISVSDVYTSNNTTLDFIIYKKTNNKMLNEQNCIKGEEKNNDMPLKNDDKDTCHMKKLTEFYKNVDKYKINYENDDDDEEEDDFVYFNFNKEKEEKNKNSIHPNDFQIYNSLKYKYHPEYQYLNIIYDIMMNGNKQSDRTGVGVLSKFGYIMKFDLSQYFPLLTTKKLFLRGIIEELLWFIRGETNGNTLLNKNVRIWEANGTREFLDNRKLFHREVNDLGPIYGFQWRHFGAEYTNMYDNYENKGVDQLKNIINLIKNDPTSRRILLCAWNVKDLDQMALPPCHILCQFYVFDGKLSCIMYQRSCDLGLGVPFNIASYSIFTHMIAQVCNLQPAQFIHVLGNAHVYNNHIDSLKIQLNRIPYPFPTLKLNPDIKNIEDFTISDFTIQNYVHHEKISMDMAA
T2 sequence (A7UD81 whole entry C59R/S108N): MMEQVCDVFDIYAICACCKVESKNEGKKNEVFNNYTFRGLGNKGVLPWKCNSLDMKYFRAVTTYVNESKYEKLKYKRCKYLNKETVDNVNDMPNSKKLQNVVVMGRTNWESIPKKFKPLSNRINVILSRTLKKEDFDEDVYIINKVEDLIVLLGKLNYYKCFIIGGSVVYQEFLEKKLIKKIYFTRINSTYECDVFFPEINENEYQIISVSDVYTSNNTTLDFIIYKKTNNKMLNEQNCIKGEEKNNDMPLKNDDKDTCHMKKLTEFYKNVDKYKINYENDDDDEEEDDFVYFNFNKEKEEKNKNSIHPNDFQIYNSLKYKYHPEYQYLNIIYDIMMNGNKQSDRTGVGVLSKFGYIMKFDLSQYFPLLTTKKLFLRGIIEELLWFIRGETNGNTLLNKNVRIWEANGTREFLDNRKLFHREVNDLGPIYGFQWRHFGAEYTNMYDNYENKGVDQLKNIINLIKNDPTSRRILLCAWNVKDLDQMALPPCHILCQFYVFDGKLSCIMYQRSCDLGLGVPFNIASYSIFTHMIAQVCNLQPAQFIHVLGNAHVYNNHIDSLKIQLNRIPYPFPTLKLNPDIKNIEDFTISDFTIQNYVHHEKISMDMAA
T1 sequence (A7UD81 whole entry S108N): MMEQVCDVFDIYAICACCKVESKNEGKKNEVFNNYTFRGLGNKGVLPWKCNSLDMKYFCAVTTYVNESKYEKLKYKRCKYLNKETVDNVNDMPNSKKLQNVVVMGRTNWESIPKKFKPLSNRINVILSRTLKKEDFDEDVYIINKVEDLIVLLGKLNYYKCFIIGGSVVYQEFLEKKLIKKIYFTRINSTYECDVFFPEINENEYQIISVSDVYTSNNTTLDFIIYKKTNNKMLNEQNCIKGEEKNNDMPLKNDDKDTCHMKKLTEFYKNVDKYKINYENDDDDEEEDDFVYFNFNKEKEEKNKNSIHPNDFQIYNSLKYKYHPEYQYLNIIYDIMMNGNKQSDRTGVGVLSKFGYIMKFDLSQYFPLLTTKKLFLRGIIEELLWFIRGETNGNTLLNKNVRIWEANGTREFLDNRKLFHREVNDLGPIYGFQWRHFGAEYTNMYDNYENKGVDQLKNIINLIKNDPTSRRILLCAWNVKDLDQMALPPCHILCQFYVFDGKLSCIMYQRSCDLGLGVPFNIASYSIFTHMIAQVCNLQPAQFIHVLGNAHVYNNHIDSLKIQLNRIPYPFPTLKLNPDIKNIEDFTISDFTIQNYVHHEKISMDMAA

Compound | Ki [1] | Ki [2] | Ki [3] | Ki [4] | IC50 [5] | IC50 [6] | IC50 [7] | IC50 [8] | IC50 [9] | IC50 [10] | Ki [11] | Ki [12]
CCCCCCc1nc(N)nc(N)c1-c1ccccc1 [Example 1, 2,4-diamino-6-(n-hexyl)-5-phenylpyrimidine] | 0.3 ± 0.1 nM | 1.2 ± 0.3 nM | 0.7 ± 0.3 nM | 1.4 ± 0.5 nM | 60 ± 20 nM | 55000 nM | 113000 nM | 268000 nM | > 10000 nM | > 10000 nM | 0.4 ± 0.02 nM | 0.7 ± 0.2 nM
Nc1nc(N)c(-c2ccccc2)c(CCCc2ccccc2)n1 [Example 2, 2,4-diamino-5-phenyl-6-(3-phenylpropyl)pyrimidine] | 0.5 nM | 0.9 ± 0.2 nM | 2.4 ± 0.1 nM | 4.7 ± 0.9 nM | 210 ± 60 nM | > 50000 nM | 150000 nM | 250000 nM | > 50000 nM | > 50000 nM | 1.1 ± 0.1 nM | 1.9 ± 0.1 nM
COC(=O)CCCc1nc(N)nc(N)c1-c1ccccc1 [Example 3, 2,4-diamino-6-(3-methoxycarbonylpropyl)-5-phenylpyrimidine] | 0.6 nM | 1.8 ± 0.2 nM | 5.5 ± 0.5 nM | 24 ± 2 nM | 390 ± 60 nM | 20000 nM | 71000 nM | 500000 nM | > 50000 nM | > 50000 nM | 3.3 ± 0.6 nM | 15 ± 3 nM
Nc1nc(N)c(-c2cccc(Cl)c2)c(CCCc2ccccc2)n1 [Example 4, 2,4-diamino-5-(3-chlorophenyl)-6-(3-phenylpropyl)pyrimidine] | 1.2 ± 0.2 nM | 3 ± 0.6 nM | 4.2 ± 0.2 nM | 2 ± 0.8 nM | 670 ± 60 nM | 2100 nM | 1600 nM | 1600 nM | > 50000 nM | > 50000 nM | 2 ± 0.2 nM | 2.2 ± 0.3 nM
COc1ccc(CCCc2nc(N)nc(N)c2-c2cccc(Cl)c2)cc1 [Example 5, 2,4-diamino-5-(3-chlorophenyl)-6-[3-(4-methoxyphenyl)propyl]pyrimidine] | 2.2 ± 0.6 nM | 4 ± 0.2 nM | 6 ± 0.6 nM | 2 ± 0.4 nM | 410 ± 50 nM | 3000 nM | 15000 nM | 3000 nM | 38000 nM | > 50000 nM | 1.3 ± 0.1 nM | 2.9 ± 0.3 nM
COC(=O)CCCc1nc(N)nc(N)c1-c1cccc(Cl)c1 [Example 6, 2,4-diamino-5-(3-chlorophenyl)-6-(3-methoxycarbonylpropyl)pyrimidine] | 0.5 nM | 1.7 ± 0.1 nM | 2.8 ± 0.2 nM | 2.7 ± 1.2 nM | 790 ± 100 nM | 20000 nM | 9300 nM | 22800 nM | > 50000 nM | > 50000 nM | 0.8 ± 0.2 nM | 1.8 ± 0.4 nM
Nc1nc(N)c(-c2cccc(Cl)c2)c(CCOCCCOc2ccccc2)n1 [Example 7, 2,4-diamino-5-(3-chlorophenyl)-6-[2-(3-phenoxypropyloxy)ethyl]pyrimidine] | 0.4 ± 0.2 nM | 1.8 ± 0.3 nM | 1.9 ± 0.4 nM | 1.7 ± 0.2 nM | 350 ± 80 nM | 15000 nM | 6400 nM | 4900 nM | > 50000 nM | > 50000 nM | 0.7 ± 0.1 nM | 1.3 ± 0.4 nM
CCc1nc(N)nc(N)c1-c1ccc(Cl)cc1 [Pyr, pyrimethamine, reference compound] |  |  |  |  | 80 ± 10 nM |  | 109000 nM | 40000 nM |  |  |  | 
COc1cc(Cc2cnc(N)nc2N)cc(OC)c1OC [Trimethoprim, reference compound] |  |  |  |  |  |  |  |  | 6000 nM | 2300 nM |  | 
